Measurements as given in ChEMBL document CHEMBL5335843, “Application of tobramycin benzyl ether as an antibiotic adjuvant capable of sensitizing multidrug-resistant Gram-negative bacteria to rifampicin” (2024).
Calls of active or inactive are those of the source. The calls are words filed in the database; no cut-off is given here.

Columns and labels:
Pseudomonas aeruginosa [1] = test: Antibiotic adjuvant activity against multi-drug resistant Pseudomonas aeruginosa clinical isolate 114228 assessed as inhibition of bacterial growth incubated for 18 hrs in presence of Rifampicin by two fold broth microdilution checkerboard assay; assay type: functional
Enterococcus faecium [2] = test: Antibiotic adjuvant activity against Enterococcus faecium 114278 assessed as rifampicin MIC incubated for 18 hrs in presence of rifampicin by two fold broth microdilution checkerboard assay; assay type: functional
Pseudomonas aeruginosa [3] = test: Antibiotic adjuvant activity against multi-drug resistant Pseudomonas aeruginosa clinical isolate PA264 assessed as inhibition of bacterial growth incubated for 18 hrs in presence of Rifampicin by two fold broth microdilution checkerboard assay; assay type: functional
Pseudomonas aeruginosa [4] = test: Antibiotic adjuvant activity against multi-drug resistant Pseudomonas aeruginosa clinical isolate PA114228 assessed as inhibition of bacterial growth incubated for 18 hrs in presence of doxycycline by two fold broth microdilution checkerboard assay; assay type: functional
Acinetobacter baumannii [5] = test: Antibiotic adjuvant activity against multi-drug resistant Acinetobacter baumannii clinical isolate 110193 assessed as fractional inhibitory concentration index incubated for 18 hrs in presence of Rifampicin by two fold broth microdilution checkerboard assay; assay type: functional
Escherichia coli [6] = test: Antibiotic adjuvant activity against multi-drug resistant Escherichia coli clinical isolate EC94474 assessed as fractional inhibitory concentration index incubated for 18 hrs in presence of doxycycline by two fold broth microdilution checkerboard assay; assay type: functional
Pseudomonas aeruginosa [7] = test: Antibiotic adjuvant activity against multi-drug resistant Pseudomonas aeruginosa clinical isolate PA114228 assessed as fold potentiation incubated for 18 hrs in presence of doxycycline by two fold broth microdilution checkerboard assay; assay type: functional
Pseudomonas aeruginosa [8] = test: Antibiotic adjuvant activity against multi-drug resistant Pseudomonas aeruginosa clinical isolate PA264 assessed as rifampicin MIC incubated for 18 hrs in presence of Rifampicin by two fold broth microdilution checkerboard assay; assay type: functional
Pseudomonas aeruginosa [9] = test: Antibiotic adjuvant activity against Pseudomonas aeruginosa PAO1 assessed as minocycline MIC incubated for 18 hrs in presence of minocycline by two fold broth microdilution checkerboard assay; assay type: functional
Pseudomonas aeruginosa [10] = test: Antibiotic adjuvant activity against multi-drug resistant Pseudomonas aeruginosa clinical isolate PA262 assessed as fractional inhibitory concentration index incubated for 18 hrs in presence of Rifampicin by two fold broth microdilution checkerboard assay; assay type: functional
Escherichia coli [11] = test: Antibiotic adjuvant activity against Escherichia coli ATCC 25922 assessed as fold potentiation incubated for 18 hrs in presence of rifampicin and CAMHB Na+ media by two fold broth microdilution checkerboard assay; assay type: functional
Pseudomonas aeruginosa [12] = test: Antibiotic adjuvant activity against multi-drug resistant Pseudomonas aeruginosa clinical isolate PA264 assessed as doxycycline MIC incubated for 18 hrs in presence of doxycycline by two fold broth microdilution checkerboard assay; assay type: functional
Acinetobacter baumannii [13] = test: Antibiotic adjuvant activity against multi-drug resistant Acinetobacter baumannii clinical isolate 92247 assessed as inhibition of bacterial growth incubated for 18 hrs in presence of Rifampicin by two fold broth microdilution checkerboard assay; assay type: functional
Escherichia coli [14] = test: Antibiotic adjuvant activity against Escherichia coli ATCC 25922 assessed as fold potentiation incubated for 18 hrs in presence of rifampicin and CAMHB Mg2+ media by two fold broth microdilution checkerboard assay; assay type: functional
Escherichia coli [15] = test: Antibiotic adjuvant activity against multi-drug resistant Escherichia coli clinical isolate EC94474 assessed as fold potentiation incubated for 18 hrs in presence of doxycycline by two fold broth microdilution checkerboard assay; assay type: functional
Pseudomonas aeruginosa [16] = test: Antibiotic adjuvant activity against multi-drug resistant Pseudomonas aeruginosa clinical isolate 114228 assessed as rifampicin MIC incubated for 18 hrs in presence of Rifampicin by two fold broth microdilution checkerboard assay; assay type: functional
Pseudomonas aeruginosa [17] = test: Antibiotic adjuvant activity against Pseudomonas aeruginosa PAO1 assessed as fold potentiation incubated for 18 hrs in presence of rifampicin and CAMHB Mg2+ media by two fold broth microdilution checkerboard assay; assay type: functional
Escherichia coli [18] = test: Antibacterial activity against multi-drug resistant Escherichia coli clinical isolate 94474 assessed as inhibition of bacterial growth incubated for 18 hrs by two fold broth microdilution assay; assay type: functional
Acinetobacter baumannii [19] = test: Antibiotic adjuvant activity against multi-drug resistant Acinetobacter baumannii clinical isolate AB027 assessed as rifampicin MIC incubated for 18 hrs in presence of Rifampicin by two fold broth microdilution checkerboard assay; assay type: functional
Escherichia coli [20] = test: Antibiotic adjuvant activity against multi-drug resistant Escherichia coli clinical isolate EC94474 assessed as inhibition of bacterial growth incubated for 18 hrs in presence of minocycline by two fold broth microdilution checkerboard assay; assay type: functional
Escherichia coli [21] = test: Antibiotic adjuvant activity against Escherichia coli ATCC 25922 assessed as rifampicin MIC incubated for 18 hrs in presence of Rifampicin by two fold broth microdilution checkerboard assay; assay type: functional
Enterococcus faecium [22] = test: Antibacterial activity against Enterococcus faecium 128149 assessed as inhibition of bacterial growth incubated for 18 hrs by two fold broth microdilution assay; assay type: functional
Escherichia coli [23] = test: Antibiotic adjuvant activity against multi-drug resistant Escherichia coli clinical isolate EC107115 assessed as inhibition of bacterial growth incubated for 18 hrs in presence of minocycline by two fold broth microdilution checkerboard assay; assay type: functional
Pseudomonas aeruginosa [24] = test: Antibiotic adjuvant activity against multi-drug resistant Pseudomonas aeruginosa clinical isolate PA114228 assessed as fractional inhibitory concentration index incubated for 18 hrs in presence of doxycycline by two fold broth microdilution checkerboard assay; assay type: functional
Pseudomonas aeruginosa [25] = test: Antibiotic adjuvant activity against multi-drug resistant Pseudomonas aeruginosa clinical isolate PA262 assessed as minocycline MIC incubated for 18 hrs in presence of minocycline by two fold broth microdilution checkerboard assay; assay type: functional
Pseudomonas aeruginosa [26] = test: Antibiotic adjuvant activity against multi-drug resistant Pseudomonas aeruginosa clinical isolate PA259 assessed as fold potentiation incubated for 18 hrs in presence of doxycycline by two fold broth microdilution checkerboard assay; assay type: functional
Escherichia coli [27] = test: Antibiotic adjuvant activity against Escherichia coli ATCC 25922 assessed as fold increase in MIC incubated for 18 hrs in presence of rifampicin and CAMHB Mg2+ media by two fold broth microdilution checkerboard assay; assay type: functional
Pseudomonas aeruginosa [28] = test: Antibiotic adjuvant activity against multi-drug resistant Pseudomonas aeruginosa clinical isolate PA264 assessed as fold potentiation incubated for 18 hrs in presence of doxycycline by two fold broth microdilution checkerboard assay; assay type: functional
Acinetobacter baumannii [29] = test: Antibiotic adjuvant activity against Acinetobacter baumannii ATCC 17978 assessed as fold potentiation incubated for 18 hrs in presence of rifampicin and FBS media by two fold broth microdilution checkerboard assay; assay type: functional
Pseudomonas aeruginosa [30] = test: Antibiotic adjuvant activity against multi-drug resistant Pseudomonas aeruginosa clinical isolate PA264 assessed as inhibition of bacterial growth incubated for 18 hrs in presence of doxycycline by two fold broth microdilution checkerboard assay; assay type: functional
Escherichia coli [31] = test: Antibiotic adjuvant activity against Escherichia coli ATCC 25922 at 8 to 11 ug/ml incubated for 18 hrs in presence of rifampicin and 25 % FBS media by two fold broth microdilution checkerboard assay; assay type: functional, organism-based; conditions: dose 8-11 µg/ml
Enterococcus faecium [32] = test: Antibiotic adjuvant activity against Enterococcus faecium 114278 assessed as fractional inhibitory concentration index incubated for 18 hrs in presence of rifampicin by two fold broth microdilution checkerboard assay; assay type: functional
Acinetobacter baumannii [33] = test: Antibiotic adjuvant activity against multi-drug resistant Acinetobacter baumannii clinical isolate 110193 assessed as rifampicin MIC incubated for 18 hrs in presence of Rifampicin by two fold broth microdilution checkerboard assay; assay type: functional
Staphylococcus aureus = test: Antibiotic adjuvant activity against methicilin-resistant Staphylococcus aureus assessed as inhibition of bacterial growth incubated for 18 hrs in presence of rifampicin by two fold broth microdilution checkerboard assay; assay type: functional
Escherichia coli [34] = test: Antibiotic adjuvant activity against Escherichia coli ATCC 25922 assessed as fold potentiation incubated for 18 hrs in presence of Rifampicin by two fold broth microdilution checkerboard assay; assay type: functional

`Cl.NC[C@H]1O[C@H](O[C@H]2[C@H](OCc3ccccc3)[C@@H](O[C@H]3O[C@H](COCc4ccccc4)[C@@H](OCc4ccccc4)[C@H](N)[C@H]3OCc3ccccc3)[C@H](N)C[C@@H]2N)[C@H](N)C[C@@H]1OCc1ccccc1` showed an MIC (Pseudomonas aeruginosa [1]) of 8 µg/mL, an MIC (Enterococcus faecium [2]) of 4 µg/mL and an MIC (Pseudomonas aeruginosa [3]) of 8 µg/mL. The MIC (Pseudomonas aeruginosa [4]) was 8 µg/mL, the “fractional inhibitory concentration index (FICI)” value (Acinetobacter baumannii [5]) was 0.126 and the “fractional inhibitory concentration index (FICI)” value (Escherichia coli [6]) was 0.188. For the same compound, the “fold change (FC)” value (Pseudomonas aeruginosa [7]) was 1, the MIC (Pseudomonas aeruginosa [8]) was 16 µg/mL and the MIC (Pseudomonas aeruginosa [9]) was 0.5 µg/mL. For the same compound, the “fractional inhibitory concentration index (FICI)” value (Pseudomonas aeruginosa [10]) was 1.063, the fold change (FC) (Escherichia coli [11]) was 512 and the MIC (Pseudomonas aeruginosa [12]) was 64 µg/mL. The MIC (Acinetobacter baumannii [13]) was 8 µg/mL, the fold change (FC) (Escherichia coli [14]) was 2 and the “fold change (FC)” value (Escherichia coli [15]) was 8. For the same compound, the MIC (Pseudomonas aeruginosa [16]) was 16 µg/mL, the fold change (FC) (Pseudomonas aeruginosa [17]) was 1 and the MIC (Escherichia coli [18]) was 32 µg/mL. For the same compound, the MIC (Acinetobacter baumannii [19]) was 0.004 µg/mL, the MIC (Escherichia coli [20]) was 8 µg/mL and the MIC (Escherichia coli [21]) was 0.008 µg/mL. For the same compound, the MIC (Enterococcus faecium [22]) was 16 µg/mL, the MIC (Escherichia coli [23]) was 8 µg/mL and the “fractional inhibitory concentration index (FICI)” value (Pseudomonas aeruginosa [24]) was 1.063. For the same compound, the MIC (Pseudomonas aeruginosa [25]) was 256 µg/mL, the “fold change (FC)” value (Pseudomonas aeruginosa [26]) was 1 and the “fold change (FC)” value (Escherichia coli [27]) was “>=2”. The “fold change (FC)” value (Pseudomonas aeruginosa [28]) was 1, the “fold change (FC)” value (Acinetobacter baumannii [29]) was 4 and the MIC (Pseudomonas aeruginosa [30]) was 8 µg/mL. The Activity (Escherichia coli [31]) was “inactive”, the “fractional inhibitory concentration index (FICI)” value (Enterococcus faecium [32]) was 1.5 and the MIC (Acinetobacter baumannii [33]) was 0.004 µg/mL. The MIC (Staphylococcus aureus) was 4 µg/mL and the “fold change (FC)” value (Escherichia coli [34]) was 8.
